Earlier results as cited in patent US9844530B1, “Ophthalmic solutions for glaucoma and conjunctivitis treatment” (Axim Biotechnologies, Inc., priority 2014, dated 2017).

Tested on: various Staphylococcus aureus strains
Conditions: background statement

C=C(C)[C@@H]1CCC(C)=C[C@H]1c1c(O)cc(CCCCC)cc1O [Cannabidiol]
minimum inhibitory concentration: 0.5 to 1 mg/L
